Results from ChEMBL document CHEMBL3784977, “Acetylcholinesterase and carbonic anhydrase inhibitory properties of novel urea and sulfamide derivatives incorporating dopaminergic 2-aminotetralin scaffolds” (Bioorg Med Chem, 2016).

How the values were obtained:
[1] = molecular target: T1, Acetylcholinesterase (Homo sapiens, UniProt P22303)
Description: Inhibition of AChE (unknown origin) using acetylcholine iodate as substrate preincubated for 10 mins followed by substrate addition by Lineweaver-Burk plot analysis

[2] = molecular target: T1, Acetylcholinesterase; remark: listed apart in the source
Description: Inhibition of AChE (unknown origin) using acetylcholine iodate as substrate preincubated for 10 mins followed by substrate addition by Ellman's method

[3] = molecular target: Acetylcholinesterase (Electrophorus electricus, UniProt O42275)
Sequence of Acetylcholinesterase (Electrophorus electricus, UniProt O42275) (O42275 whole entry): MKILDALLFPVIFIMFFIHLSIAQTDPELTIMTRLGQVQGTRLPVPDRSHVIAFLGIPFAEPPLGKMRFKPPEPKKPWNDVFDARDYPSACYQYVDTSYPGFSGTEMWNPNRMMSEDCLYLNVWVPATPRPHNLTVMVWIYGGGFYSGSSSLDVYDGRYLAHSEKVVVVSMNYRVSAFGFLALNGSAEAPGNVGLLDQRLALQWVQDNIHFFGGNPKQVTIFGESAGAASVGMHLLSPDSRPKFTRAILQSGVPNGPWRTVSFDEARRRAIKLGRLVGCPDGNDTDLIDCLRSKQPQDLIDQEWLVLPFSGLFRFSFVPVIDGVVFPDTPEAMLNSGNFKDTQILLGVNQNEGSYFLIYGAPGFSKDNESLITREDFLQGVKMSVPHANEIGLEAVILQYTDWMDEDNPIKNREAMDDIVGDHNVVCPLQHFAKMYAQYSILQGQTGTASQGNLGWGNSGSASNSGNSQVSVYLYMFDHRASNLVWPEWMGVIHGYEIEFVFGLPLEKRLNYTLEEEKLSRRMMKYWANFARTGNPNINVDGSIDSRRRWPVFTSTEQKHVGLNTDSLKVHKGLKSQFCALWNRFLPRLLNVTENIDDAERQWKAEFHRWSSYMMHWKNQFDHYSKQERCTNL
Description: Inhibition of electric eel AChE using acetylthiocholine iodide as substrate preincubated for 10 mins followed by substrate addition by Lineweaver-Burk plot analysis

T1 sequence (P22303 whole entry): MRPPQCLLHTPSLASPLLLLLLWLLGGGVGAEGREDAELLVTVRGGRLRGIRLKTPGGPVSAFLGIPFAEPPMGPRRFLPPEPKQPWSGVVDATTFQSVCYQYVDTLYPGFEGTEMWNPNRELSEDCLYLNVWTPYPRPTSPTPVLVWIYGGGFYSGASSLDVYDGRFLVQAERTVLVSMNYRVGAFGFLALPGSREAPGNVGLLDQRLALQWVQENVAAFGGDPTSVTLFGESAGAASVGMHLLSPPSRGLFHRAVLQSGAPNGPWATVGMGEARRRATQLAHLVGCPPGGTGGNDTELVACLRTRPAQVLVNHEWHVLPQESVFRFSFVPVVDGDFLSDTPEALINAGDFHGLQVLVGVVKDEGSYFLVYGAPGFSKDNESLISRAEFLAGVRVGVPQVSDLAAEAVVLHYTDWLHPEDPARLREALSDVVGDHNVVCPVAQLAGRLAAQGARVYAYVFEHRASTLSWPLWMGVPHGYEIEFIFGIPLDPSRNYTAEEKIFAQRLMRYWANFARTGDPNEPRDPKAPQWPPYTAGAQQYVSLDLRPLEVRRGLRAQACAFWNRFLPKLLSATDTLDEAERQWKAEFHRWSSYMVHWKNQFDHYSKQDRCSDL

Structure (SMILES)	Ki [1]	IC50 [2]	Ki [3]
COc1ccc2c(c1)CCC(NS(=O)(=O)N(C)C)C2 (stereo not drawn)	1.05 nM	17 nM	
CN(C)C(=O)N[C@H]1CCc2ccc(O)cc2C1	1.74 nM	103 nM	
COc1ccc2c(c1)CC(NS(=O)(=O)N(C)C)CC2 (stereo not drawn)	0.83 nM	15.8 nM	
CN(C)C(=O)NC1CCc2cc(O)ccc2C1 (stereo not drawn)	1.33 nM	7.16 nM	
CN(C)S(=O)(=O)NC1CCc2ccc(O)cc2C1 (stereo not drawn)	0.72 nM	37 nM	
Oc1ccc(O)cc1 [HYDROQUINONE]			1.22 nM
CN(C)S(=O)(=O)N[C@H]1CCc2cc(O)ccc2C1	1.22 nM	27.9 nM	
COc1cccc2c1CC[C@H](NC(=O)N(C)C)C2	0.98 nM	19.9 nM	
COc1ccc2c(c1)CCC(NC(=O)N(C)C)C2 (stereo not drawn)	0.67 nM	16.4 nM	
CN(C)S(=O)(=O)NC1CCc2c(O)cccc2C1 (stereo not drawn)	1.34 nM	30.9 nM	
CN(C)C(=O)N[C@H]1CCc2c(O)cccc2C1	1.59 nM	132 nM	
COc1ccc2c(c1)C[C@@H](NC(=O)N(C)C)CC2	1.06 nM	22.4 nM	
